Values of other authors in patent publication US6488917B2, “Optical brighteners as bleaching agents” (L'Oreal, priority 1998, dated 2002).

System: melanocytes
Settings: known from the prior art

Oc1ccc(O)cc1 [hydroquinone]
cytotoxicity towards melanocytes: known for its cytotoxicity towards melanocytes
